Measurements: PubChem BioAssay AID1963848 (Molecular Pharmacology Branch, DTP, NCI, 2024)

System: 379773-124-R-J2-PDC spheroid viability
Assay: Anticancer human tumor 379773-124-R-J2-PDC patient-derived endometrial carcinoma cell line growth inhibition [POLQ]
Details: spheroids with HUVEC and MSC; for IC50: curve of first compound; for viability, T/C: stronger effect = lower value
In short: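 PDC + HUVEC + MSC complex spheroids; POLQ inhibitors ± partner drugs; top conc. at/near clinical Cmax, else 10 microM (SN-38 1 microM), half-log dilutions; 37 degrees C, 5% CO2.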

[1] = second compound 0.0316 µM, first compound 0.0316 µM
[2] = second compound 0.0316 µM, first compound 0.1 µM
[3] = second compound 0.0316 µM, first compound 0.316 µM
[4] = second compound 0.0316 µM, first compound 1 µM
[5] = second compound 0.0316 µM, first compound 3.16 µM
[6] = second compound 0.0316 µM, first compound 10 µM
[7] = second compound 0.1 µM, first compound 0.0316 µM
[8] = second compound 0.1 µM, first compound 0.1 µM
[9] = second compound 0.1 µM, first compound 0.316 µM
[10] = second compound 0.1 µM, first compound 1 µM
[11] = second compound 0.1 µM, first compound 3.16 µM
[12] = second compound 0.1 µM, first compound 10 µM
[13] = second compound 0.316 µM, first compound 0.0316 µM
[14] = second compound 0.316 µM, first compound 0.1 µM
[15] = second compound 0.316 µM, first compound 0.316 µM
[16] = second compound 0.316 µM, first compound 1 µM
[17] = second compound 0.316 µM, first compound 3.16 µM
[18] = second compound 0.316 µM, first compound 10 µM
[19] = second compound 1 µM, first compound 0.0316 µM
[20] = second compound 1 µM, first compound 0.1 µM
[21] = second compound 1 µM, first compound 0.316 µM
[22] = second compound 1 µM, first compound 1 µM
[23] = second compound 1 µM, first compound 3.16 µM
[24] = second compound 1 µM, first compound 10 µM
[25] = second compound 3.16 µM, first compound 0.0316 µM
[26] = second compound 3.16 µM, first compound 0.1 µM
[27] = second compound 3.16 µM, first compound 0.316 µM
[28] = second compound 3.16 µM, first compound 1 µM
[29] = second compound 3.16 µM, first compound 3.16 µM
[30] = second compound 3.16 µM, first compound 10 µM
[31] = second compound 10 µM, first compound 0.0316 µM
[32] = second compound 10 µM, first compound 0.1 µM
[33] = second compound 10 µM, first compound 0.316 µM
[34] = second compound 10 µM, first compound 1 µM
[35] = second compound 10 µM, first compound 3.16 µM
[36] = second compound 10 µM, first compound 10 µM
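Further: spheroids exposed to drugs for seven days before readout.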
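Wherever viability, T/C is given: percent viability relative to DMSO vehicle control taken as 100%.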

SMILES: COc1cc(C2c3cc4c(cc3C(OC3OC5COC(C)OC5C(O)C3O)C3COC(=O)C23)OCO4)cc(OC)c1O (stereo unspecified) + COC1C(OC(N)=O)C(O)C(Oc2ccc3c(O)c(NC(=O)c4ccc(O)c(CC=C(C)C)c4)c(=O)oc3c2C)OC1(C)C
- IC50 (second compound 0.0316 µM): 1.19 µM
- IC50 (second compound 0.1 µM): 1.51 µM
- IC50 (second compound 0.316 µM): 1.49 µM
- IC50 (second compound 1 µM): 1.37 µM
- IC50 (second compound 3.16 µM): 1.37 µM
- IC50 (second compound 10 µM): 1.19 µM
- viability, T/C [1]: 97.5%
- viability, T/C [2]: 82.6%
- viability, T/C [3]: 86.2%
- viability, T/C [4]: 56.9%
- viability, T/C [5]: 13.8%
- viability, T/C [6]: 9.47%
- viability, T/C [7]: 95.5%
- viability, T/C [8]: 80.6%
- viability, T/C [9]: 80%
- viability, T/C [10]: 70.5%
- viability, T/C [11]: 13%
- viability, T/C [12]: 10.2%
- viability, T/C [13]: 95.8%
- viability, T/C [14]: 80.9%
- viability, T/C [15]: 81.3%
- viability, T/C [16]: 70.5%
- viability, T/C [17]: 11.1%
- viability, T/C [18]: 9.75%
- viability, T/C [19]: 93.1%
- viability, T/C [20]: 94.6%
- viability, T/C [21]: 81.6%
- viability, T/C [22]: 64.8%
- viability, T/C [23]: 12.2%
- viability, T/C [24]: 9.19%
- viability, T/C [25]: 76.1%
- viability, T/C [26]: 84.7%
- viability, T/C [27]: 83%
- viability, T/C [28]: 64%
- viability, T/C [29]: 12.9%
- viability, T/C [30]: 8.54%
- viability, T/C [31]: 85.2%
- viability, T/C [32]: 84.4%
- viability, T/C [33]: 89.3%
- viability, T/C [34]: 56.3%
- viability, T/C [35]: 14.1%
- viability, T/C [36]: 9.29%

SMILES: CNCc1ccc(-c2[nH]c3cc(F)cc4c3c2CCNC4=O)cc1 + Cc1cccc(N(C)C(=O)C2C(O)CCN2c2nc(C)cc(C(F)(F)F)c2C#N)c1
- IC50 (second compound 0.0316 µM): > 10 µM
- IC50 (second compound 0.1 µM): > 10 µM
- IC50 (second compound 0.316 µM): > 10 µM
- IC50 (second compound 1 µM): > 10 µM
- IC50 (second compound 3.16 µM): > 10 µM
- IC50 (second compound 10 µM): > 10 µM
- viability, T/C [1]: 89.5%
- viability, T/C [2]: 74.2%
- viability, T/C [3]: 88.5%
- viability, T/C [4]: 83.2%
- viability, T/C [5]: 72.7%
- viability, T/C [6]: 58.3%
- viability, T/C [7]: 90.4%
- viability, T/C [8]: 85.8%
- viability, T/C [9]: 75.2%
- viability, T/C [10]: 79.5%
- viability, T/C [11]: 80.4%
- viability, T/C [12]: 66.9%
- viability, T/C [13]: 93.3%
- viability, T/C [14]: 77.5%
- viability, T/C [15]: 83.1%
- viability, T/C [16]: 82.9%
- viability, T/C [17]: 75.8%
- viability, T/C [18]: 57.6%
- viability, T/C [19]: 78.2%
- viability, T/C [20]: 79.7%
- viability, T/C [21]: 87.1%
- viability, T/C [22]: 73.5%
- viability, T/C [23]: 73.8%
- viability, T/C [24]: 60.3%
- viability, T/C [25]: 86.5%
- viability, T/C [26]: 73.6%
- viability, T/C [27]: 79.8%
- viability, T/C [28]: 83.1%
- viability, T/C [29]: 82%
- viability, T/C [30]: 54.8%
- viability, T/C [31]: 74.8%
- viability, T/C [32]: 70.3%
- viability, T/C [33]: 72.7%
- viability, T/C [34]: 69.6%
- viability, T/C [35]: 77.3%
- viability, T/C [36]: 61.1%

SMILES: CCCS(=O)(=O)Nc1ccc(F)c(C(=O)c2c[nH]c3ncc(-c4ccc(Cl)cc4)cc23)c1F + COC1C(OC(N)=O)C(O)C(Oc2ccc3c(O)c(NC(=O)c4ccc(O)c(CC=C(C)C)c4)c(=O)oc3c2C)OC1(C)C
- IC50 (second compound 0.0316 µM): > 10 µM
- IC50 (second compound 0.1 µM): > 10 µM
- IC50 (second compound 0.316 µM): > 10 µM
- IC50 (second compound 1 µM): > 10 µM
- IC50 (second compound 3.16 µM): > 10 µM
- IC50 (second compound 10 µM): > 10 µM
- viability, T/C [1]: 94.2%
- viability, T/C [2]: 86.8%
- viability, T/C [3]: 83.8%
- viability, T/C [4]: 87.9%
- viability, T/C [5]: 70.5%
- viability, T/C [6]: 57.9%
- viability, T/C [7]: 86.2%
- viability, T/C [8]: 87.7%
- viability, T/C [9]: 88.3%
- viability, T/C [10]: 80.3%
- viability, T/C [11]: 73.1%
- viability, T/C [12]: 55.4%
- viability, T/C [13]: 77.1%
- viability, T/C [14]: 75.6%
- viability, T/C [15]: 76.8%
- viability, T/C [16]: 77.6%
- viability, T/C [17]: 66.2%
- viability, T/C [18]: 52.9%
- viability, T/C [19]: 87.6%
- viability, T/C [20]: 84.4%
- viability, T/C [21]: 81.8%
- viability, T/C [22]: 77.8%
- viability, T/C [23]: 73.6%
- viability, T/C [24]: 58.9%
- viability, T/C [25]: 73.5%
- viability, T/C [26]: 76.2%
- viability, T/C [27]: 75.8%
- viability, T/C [28]: 76.4%
- viability, T/C [29]: 75.7%
- viability, T/C [30]: 61.3%
- viability, T/C [31]: 78.5%
- viability, T/C [32]: 85.4%
- viability, T/C [33]: 79.8%
- viability, T/C [34]: 66.5%
- viability, T/C [35]: 75.9%
- viability, T/C [36]: 60.2%
